Data on 22 compounds can be found in PubChem BioAssay AID206 (DTP/NCI, 2004).

The test concerns nude mice, HT29 intrarenal xenograft, tumor weight T/C. The test is described as follows: NCI In Vivo Anticancer Drug Screen. Data for tumor model HT29;CX-1 Human Adenocarcinoma (MER+) (intrarenal inoculation) in NU/NU Swiss (nude) mice. The note with it: endpoint: mean tumor weight change, higher = larger tumour. As to the method:
The antitumor activity of compounds was measured in mice bearing transplantable tumors. Survival or tumor size were measured and the results are expressed as the measurement made in the treated group (T) divided by the measurement made in the vehicle treated control group (C). The tumor model used in this assay is HT29;CX-1 Human Adenocarcinoma (MER+) (intrarenal inoculation) in NU/NU Swiss (nude) mice

[1] abbreviates: dose: 50.0 mg/kg/injection, schedule: Q01DX010 (sc), vehicle: saline.
Where [2] appears, read: dose: 100.0 mg/kg/injection, schedule: Q01DX010 (sc), vehicle: saline.
The mark [3] stands for this setting: dose: 300.0 mg/kg/injection, schedule: Q04DX004 (sc), vehicle: Klucel (hydroxypropylcellulose) (HPC).
Where [4] appears, read: dose: 75.0 mg/kg/injection, schedule: Q04DX004 (sc), vehicle: Klucel (hydroxypropylcellulose) (HPC).
Where [5] appears, read: dose: 150.0 mg/kg/injection, schedule: Q04DX004 (sc), vehicle: Klucel (hydroxypropylcellulose) (HPC).

Each structure is given as a SMILES string. Several values for one entry are separate records, joined by “and”; a condition that tells them apart may be missing. Identical values can stand only once. Inconclusive results are not listed.

For the compound `CC1CN1P1(N2CC2C)=NP(N2CC2C)(N2CC2C)=NP(N2CC2C)(N2CC2C)=N1` (centres undefined), the T/C runs as follows: under setting [1], 79 % of control; under setting [2], 101 % of control.

Regarding `S=c1nc[nH]c2nc[nH]c12`, the T/C by setting is: (dose: 12.5 mg/kg/injection, schedule: Q01DX010 (sc), vehicle: Klucel (hydroxypropylcellulose) (HPC)) 200 % of control; (dose: 25.0 mg/kg/injection, schedule: Q01DX010 (sc), vehicle: Klucel (hydroxypropylcellulose) (HPC)) 81 % of control.

For the compound `O=C(O)CSc1c(Cl)c(=O)oc2ccc(Cl)cc12`, the T/C under setting [3] was 99 % of control.

Consider `Nc1nc([Se])c2ncn(C3OC(CO)C(O)C3O)c2n1` (centres undefined), for which the T/C is 98 % of control (dose: 2.0 mg/kg/injection, schedule: Q01DX010 (sc), vehicle: saline); 242 % of control (dose: 8.0 mg/kg/injection, schedule: Q01DX010 (sc), vehicle: saline); 202 % of control (dose: 16.0 mg/kg/injection, schedule: Q01DX010 (sc), vehicle: saline).

For `O=C1C=CC(=O)N1c1ccc(Cl)cc1`, the T/C reads like this: (dose: 37.5 mg/kg/injection, schedule: Q04DX004 (sc), vehicle: Klucel (hydroxypropylcellulose) (HPC)) 70 % of control; under setting [4], 70 % of control; under setting [5], 106 % of control.

`CC[N+](CC)(CC)CC`: the T/C was 68 % of control (dose: 3.0 mg/kg/injection, schedule: Q01DX010 (sc), vehicle: saline with Tween-80) and 104 % of control (dose: 6.0 mg/kg/injection, schedule: Q01DX010 (sc), vehicle: saline with Tween-80).

On to `N=C(N)SCc1c2ccccc2c(CSC(=N)N)c2ccccc12`, for which the T/C is, setting by setting: (dose: 25.0 mg/kg/injection, schedule: Q04DX004 (sc), vehicle: suspension in saline) 69 % of control; (dose: 50.0 mg/kg/injection, schedule: Q04DX004 (sc), vehicle: suspension in saline) 72 % of control; (dose: 100.0 mg/kg/injection, schedule: Q04DX004 (sc), vehicle: suspension in saline) 52 % of control; (dose: 200.0 mg/kg/injection, schedule: Q04DX004 (sc), vehicle: suspension in saline) 75 % of control.

Regarding `COc1ccc2c(c1)CCn1c(C)c(COC(=O)NC(C)C)c(COC(=O)NC(C)C)c1-2`, the T/C runs as follows: (dose: 300.0 mg/kg/injection, schedule: Q04DX004 (sc), vehicle: distilled water + Tween-80) 165 % of control; (dose: 600.0 mg/kg/injection, schedule: Q04DX004 (sc), vehicle: distilled water + Tween-80) 191 % of control.

On to `O=C(O)C1CSCN1` (centres undefined), for which the T/C by setting is: (dose: 50.0 mg/kg/injection, schedule: Q01DX010 (sc), vehicle: water) 96 % of control; (dose: 100.0 mg/kg/injection, schedule: Q01DX010 (sc), vehicle: water) 105 % of control.

Turning to `CCCC(=O)O.CCCC(=O)O.CCCC(=O)O.CCCC(=O)O.[Rh].[Rh]`, the T/C (dose: 0.5 mg/kg/injection, schedule: Q04DX004 (sc), vehicle: suspension in saline) is 99 % of control; the T/C (dose: 1.0 mg/kg/injection, schedule: Q04DX004 (sc), vehicle: suspension in saline) is 75 % of control; the T/C (dose: 2.0 mg/kg/injection, schedule: Q04DX004 (sc), vehicle: suspension in saline) is 97 % of control; the T/C (dose: 4.0 mg/kg/injection, schedule: Q04DX004 (sc), vehicle: suspension in saline) was 155 % of control.

`COC1=C(C)C(=O)C2=C(C1=O)C1C3CC4=C(C(=O)C(OC)=C(C)C4=O)C(CNC(=O)C(C)=O)N3C(C#N)C(C2)N1C` (centres undefined): the T/C is, setting by setting: (dose: 1.0 mg/kg/injection, schedule: Q04DX004 (sc), vehicle: Klucel (hydroxypropylcellulose) (HPC)) 99 % of control; (dose: 2.0 mg/kg/injection, schedule: Q04DX004 (sc), vehicle: Klucel (hydroxypropylcellulose) (HPC)) 75 % of control.

On to `C[n+]1ccc(Nc2ccc(NC(=O)c3ccc(Nc4cc[n+](C)c5ccc(N)cc45)cc3)cc2)cc1`, for which the T/C was 74 % of control (dose: 8.0 mg/kg/injection, schedule: Q04DX004 (sc), vehicle: distilled water + Tween-80); 211 % of control (dose: 16.0 mg/kg/injection, schedule: Q04DX004 (sc), vehicle: distilled water + Tween-80); 118 % of control (dose: 25.0 mg/kg/injection, schedule: Q04DX004 (sc), vehicle: distilled water + Tween-80); 303 % of control (dose: 32.0 mg/kg/injection, schedule: Q04DX004 (sc), vehicle: distilled water + Tween-80); 51 % of control (dose: 50.0 mg/kg/injection, schedule: Q04DX004 (sc), vehicle: distilled water + Tween-80).

Regarding `c1cc[c]([Sn][c]2ccccc2)cc1`, the T/C by setting is: (dose: 80.0 mg/kg/injection, schedule: Q01DX010 (sc), vehicle: saline) 88 % of control; (dose: 160.0 mg/kg/injection, schedule: Q01DX010 (sc), vehicle: saline) 113 % of control; (dose: 320.0 mg/kg/injection, schedule: Q01DX010 (sc), vehicle: saline) 122 % of control.

For the compound `CC(C)NC(=O)N(CCCCBr)N=O`, the T/C by setting is: under setting [4], 174 % of control; under setting [5], 182 % of control; under setting [3], 91 % of control; (dose: 600.0 mg/kg/injection, schedule: Q04DX004 (sc), vehicle: Klucel (hydroxypropylcellulose) (HPC)) 108 % of control.

For the compound `CC1=C(/C=C/C(C)=C/C=C/C(C)=C/C(=O)O)C(C)(C)CCC1`, the T/C is 153 % of control (dose: 12.5 mg/kg/injection, schedule: Q01DX010 (sc), vehicle: saline with Tween-80); 176 % of control (dose: 25.0 mg/kg/injection, schedule: Q01DX010 (sc), vehicle: saline with Tween-80); 123 % of control (dose: 50.0 mg/kg/injection, schedule: Q01DX010 (sc), vehicle: saline with Tween-80).

For the compound `NC(C/[N+]([O-])=N/O)C(=O)O` (centres undefined), the T/C reads like this: under setting [1], 186 % of control; under setting [2], 53 % of control.

As to `CN(C)C=O`, the T/C runs as follows: (dose: 400.0 mg/kg/injection, schedule: Q01DX010 (sc), vehicle: saline) 186 % of control; (dose: 3200.0 mg/kg/injection, schedule: Q01DX010 (sc), vehicle: saline) 48 % of control and 49 % of control.

In the case of `Oc1c(Cl)cc(C(c2cc(Cl)c(O)c(Cl)c2)C(c2cc(Cl)c(O)c(Cl)c2)c2cc(Cl)c(O)c(Cl)c2)cc1Cl`, the T/C reads like this: (dose: 450.0 mg/kg/injection, schedule: Q04DX004 (sc), vehicle: Klucel (hydroxypropylcellulose) (HPC)) 104 % of control; (dose: 900.0 mg/kg/injection, schedule: Q04DX004 (sc), vehicle: Klucel (hydroxypropylcellulose) (HPC)) 95 % of control; (dose: 1800.0 mg/kg/injection, schedule: Q04DX004 (sc), vehicle: Klucel (hydroxypropylcellulose) (HPC)) 96 % of control.

Consider `CC1=C(C)C(=O)O[C@@H]([C@](C)(O)[C@]2(O)CC[C@@]3(O)[C@@H]4C[C@H]5O[C@]56[C@@H](O)C=CC(=O)[C@]6(C)[C@H]4CC[C@]23C)C1`, for which the T/C is 169 % of control (dose: 4.0 mg/kg/injection, schedule: Q01DX010 (sc), vehicle: saline) and 46 % of control (dose: 64.0 mg/kg/injection, schedule: Q01DX010 (sc), vehicle: saline).

For `COc1cc(NS(C)(=O)=O)ccc1Nc1c2ccccc2nc2ccccc12`, the T/C by setting is: (dose: 0.38 mg/kg/injection, schedule: Q01DX010 (sc), vehicle: other) 33 % of control; (dose: 0.75 mg/kg/injection, schedule: Q01DX010 (sc), vehicle: lactic acid) 43 % of control; (dose: 0.75 mg/kg/injection, schedule: Q01DX010 (sc), vehicle: other) 15 % of control; (dose: 0.78 mg/kg/injection, schedule: Q01DX010 (sc), vehicle: lactic acid) 15 % of control; (dose: 1.5 mg/kg/injection, schedule: Q01DX010 (sc), vehicle: lactic acid) 30 % of control; (dose: 1.5 mg/kg/injection, schedule: Q01DX010 (sc), vehicle: other) 39 % of control. Further, under “dose: 3.0 mg/kg/injection, schedule: Q01DX010 (sc), vehicle: other”, the T/C is 99 % of control.

`Nc1ccccc1N`: the T/C by setting is: (dose: 100.0 mg/kg/injection, schedule: Q01DX010 (sc), vehicle: Klucel (hydroxypropylcellulose) (HPC)) 206 % of control; (dose: 200.0 mg/kg/injection, schedule: Q01DX010 (sc), vehicle: Klucel (hydroxypropylcellulose) (HPC)) 115 % of control.

Turning to `CCOC(=O)C(CC(C)C)NC(=O)C(N)Cc1ccc(N(CCCl)CCCl)cc1` (centres undefined), the T/C (dose: 7.5 mg/kg/injection, schedule: Q04DX004 (sc), vehicle: water) was 81 % of control; the T/C (dose: 15.0 mg/kg/injection, schedule: Q04DX004 (sc), vehicle: water) was 105 % of control and 118 % of control; the T/C (dose: 30.0 mg/kg/injection, schedule: Q04DX004 (sc), vehicle: water) is 82 % of control and 86 % of control; the T/C (dose: 60.0 mg/kg/injection, schedule: Q04DX004 (sc), vehicle: water) is 7 % of control.
